Laboratory results published in the CheMixHub drug solubility set.

Assay: xn = mol fraction of the nth substance listed, in the solute-free solvent

CC(=O)Nc1ccc(OC(=O)c2ccccc2OC(C)=O)cc1 + CN1CCCC1=O + O
solubility (g/100 g solution)
Details | 278.15 K | 283.15 K | 288.15 K | 293.15 K | 298.15 K | 303.15 K | 308.15 K | 313.15 K | 318.15 K
x2 = 0.0198 | 0.0101 | 0.0143 | 0.02 | 0.0278 | 0.0388 | 0.0522 | 0.0688 | 0.0923 | 0.122
x2 = 0.04347 | 0.0672 | 0.0901 | 0.121 | 0.159 | 0.209 | 0.268 | 0.349 | 0.446 | 0.569
x2 = 0.07228 | 0.275 | 0.355 | 0.448 | 0.581 | 0.725 | 0.903 | 1.13 | 1.39 | 1.7
x2 = 0.1081 | 0.8 | 0.998 | 1.25 | 1.51 | 1.85 | 2.22 | 2.69 | 3.19 | 3.81
x2 = 0.1538 | 1.62 | 1.95 | 2.37 | 2.85 | 3.4 | 4.01 | 4.67 | 5.48 | 6.35
x2 = 0.2143 | 2.87 | 3.37 | 3.94 | 4.63 | 5.38 | 6.15 | 7.12 | 8.13 | 9.18
x2 = 0.2979 | 4.29 | 4.95 | 5.76 | 6.59 | 7.51 | 8.56 | 9.7 | 10.8 | 12.1
x2 = 0.421 | 5.72 | 6.53 | 7.43 | 8.43 | 9.49 | 10.7 | 11.8 | 13.2 | 14.5
x2 = 0.6207 | 6.55 | 7.48 | 8.44 | 9.55 | 10.7 | 11.9 | 13.3 | 14.7 | 16.1

O=c1[nH]cc(F)c(=O)[nH]1 + CN(C)C=O + C1CCOC1
solubility (g/100 g solution)
Details | 283.15 K | 288.15 K | 293.15 K | 298.15 K | 303.15 K | 308.15 K | 313.15 K | 318.15 K | 323.15 K
x2 = 0.1978 | 0.137 | 0.174 | 0.209 | 0.264 | 0.33 | 0.423 | 0.551 | 0.66 | 0.816
x2 = 0.3967 | 0.188 | 0.24 | 0.293 | 0.37 | 0.468 | 0.581 | 0.735 | 0.883 | 1.07
x2 = 0.5967 | 0.283 | 0.352 | 0.434 | 0.533 | 0.653 | 0.814 | 1.01 | 1.24 | 1.51
x2 = 0.7978 | 0.461 | 0.564 | 0.685 | 0.829 | 0.996 | 1.23 | 1.51 | 1.84 | 2.23
